In patent US9533987B2, “Heterocyclic derivates” (KALVISTA PHARMACEUTICALS LIMITED, priority 2013, dated 2017):

How the values were obtained:
Human plasma kallikrein = Human plasma kallikrein (Homo sapiens (Human), UniProt P03952); assay: Determination of the IC50 for plasma kallikrein (fluorogenic substrate H-DPro-Phe-Arg-AFC); type: biochemical; details: 37° C., read-out: IC50 (human PKaI)
Experimental: Determination of the IC50 for Plasma Kallikrein
(§1) Human plasma kallikrein (Protogen) was incubated at 37° C. with the fluorogenic substrate H-DPro-Phe-Arg-AFC and various concentrations of the test compound. Residual enzyme activity (initial rate of reaction) was determined by measuring the change in […] at 410 nm and the IC50 value for the test compound was determined.

Human KLK1 = Human KLK1 (Homo sapiens (Human), UniProt P06870); assay: Determination of the IC50 for KLK1 (fluorogenic substrate H-DVal-Leu-Arg-AFC); type: biochemical; details: 37° C.
Experimental: Determination of the IC50 for KLK1
as §1, with “KLK1 (Callbiochem)” for “plasma kallikrein (Protogen)”, “H-DVal-Leu-Arg-AFC” for “H-DPro-Phe-Arg-AFC”

Chain of Human KLK1 (P06870 25-262): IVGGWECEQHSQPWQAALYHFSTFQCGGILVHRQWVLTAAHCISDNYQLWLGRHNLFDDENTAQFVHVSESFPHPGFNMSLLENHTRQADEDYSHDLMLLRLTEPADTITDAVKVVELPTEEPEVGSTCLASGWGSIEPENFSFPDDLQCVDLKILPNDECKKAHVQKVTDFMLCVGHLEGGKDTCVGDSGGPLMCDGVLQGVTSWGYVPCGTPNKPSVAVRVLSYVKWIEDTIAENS
Chain of Human plasma kallikrein (P03952 391-638): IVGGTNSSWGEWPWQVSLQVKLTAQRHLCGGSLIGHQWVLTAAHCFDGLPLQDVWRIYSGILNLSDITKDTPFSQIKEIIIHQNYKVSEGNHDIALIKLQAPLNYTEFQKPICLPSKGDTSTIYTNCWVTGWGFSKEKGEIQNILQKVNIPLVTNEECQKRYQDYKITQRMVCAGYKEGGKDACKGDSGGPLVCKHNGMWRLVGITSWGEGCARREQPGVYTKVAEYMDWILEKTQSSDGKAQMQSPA
Chain of Human plasma kallikrein (P03952 20-390 partner): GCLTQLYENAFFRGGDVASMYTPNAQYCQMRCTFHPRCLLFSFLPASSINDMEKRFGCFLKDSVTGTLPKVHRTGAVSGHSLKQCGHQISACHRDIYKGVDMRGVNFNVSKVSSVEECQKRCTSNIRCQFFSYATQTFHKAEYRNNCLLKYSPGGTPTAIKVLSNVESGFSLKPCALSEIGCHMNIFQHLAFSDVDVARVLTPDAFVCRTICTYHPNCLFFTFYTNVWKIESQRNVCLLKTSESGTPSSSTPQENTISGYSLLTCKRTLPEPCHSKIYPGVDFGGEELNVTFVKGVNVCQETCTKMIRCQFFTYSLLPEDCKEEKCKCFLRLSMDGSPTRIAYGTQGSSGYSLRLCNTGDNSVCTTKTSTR

| Compound | IC50 (Human plasma kallikrein) | IC50 (Human KLK1) |
| --- | --- | --- |
| Cc1cc(C(=O)NCc2cnc3[nH]ccc3c2)c(C)n1Cc1csc(-c2ccccc2)n1 [Example 3, 2,5-Dimethyl-1-(2-phenyl-thiazol-4-ylmethyl)-1H-pyrrole-3-carboxylic acid (1H-pyrrolo[2,3-b]pyridin-5-ylmethyl)-amide] | 2.69 µM | > 10 µM |
| Cc1cnn(Cc2ccc(Cn3cc(C(=O)NCc4ccc5c(N)nccc5c4)c(C(=O)O)n3)cc2)c1 [Example 17, 4-[(1-Amino-isoquinolin-6-ylmethyl)-carbamoyl]-1-[4-(4-methyl-pyrazol-1-ylmethyl)-benzyl]-1H-pyrazole-3-carboxylic acid] | 1.19 µM | > 10 µM |
| Cc1cnn(Cc2ccc(Cn3cc(C(=O)NCc4ccc5c(N)nccc5c4)c(=O)[nH]3)cc2)c1 [Example 19, 1-[4-(4-Methyl-pyrazol-1-ylmethyl)-benzyl]-3-oxo-2,3-dihydro-1H-pyrazole-4-carboxylic acid (1-amino-isoquinolin-6-ylmethyl)-amide] | 0.994 µM | > 10 µM |
| CCOc1ccc(Cn2cc(C(=O)NCc3ccc4c(N)nccc4c3)c(-c3ccccc3)n2)cn1 [Example 26, 1-(6-Ethoxy-pyridin-3-ylmethyl)-3-phenyl-1H-pyrazole-4-carboxylic acid (1-amino-isoquinolin-6-ylmethyl)-amide] | 0.205 µM | 4.73 µM |
| CCOc1ccc(Cn2cc(C(=O)NCc3ccc4c(N)nccc4c3)c(NC(=O)COC)n2)cn1 [Example 27, 1-(6-Ethoxy-pyridin-3-ylmethyl)-3-(2-methoxy-acetylamino)-1H-pyrazole-4-carboxylic acid (1-amino-isoquinolin-6-ylmethyl)-amide] | 0.128 µM | 3.2 µM |
| CCn1c(C(=O)NCc2ccc3c(N)nccc3c2)cc(C)c1Cc1csc(-c2ccccc2)n1 [Example 29, 1-Ethyl-4-methyl-5-(2-phenyl-thiazol-4-ylmethyl)-1H-pyrrole-2-carboxylic acid (1-amino-isoquinolin-6-ylmethyl)-amide] | 0.62 µM | > 10 µM |
| Cc1cnn(Cc2ccc(Cn3cc(C(=O)NCc4ccc5c(N)nccc5c4)cn3)cc2)c1 [Example 31, 1-[4-(4-Methyl-pyrazol-1-ylmethyl)-benzyl]-1H-pyrazole-4-carboxylic acid (1-amino-isoquinolin-6-ylmethyl)-amide] | 0.002 µM | > 10 µM |
| CC(C)Oc1cc(Cn2cc(C(=O)NCc3ccc4c(N)nccc4c3)c(C(F)(F)F)n2)ccn1 [Example 66, 1-(2-Isopropoxy-pyridin-4-ylmethyl)-3-trifluoromethyl-1H-pyrazole-4-carboxylic acid (1-amino-isoquinolin-6-ylmethyl)-amide] | 0.281 µM | > 10 µM |
| Nc1nccc2cc(CNC(=O)c3cn(Cc4ccc(N5CCC(CO)C5)nc4)nc3C(F)(F)F)ccc12 (stereo not drawn) [Example 69, 1-[6-(3-Hydroxymethyl-pyrrolidin-1-yl)-pyridin-3-ylmethyl]-3-trifluoromethyl-1H-pyrazole-4-carboxylic acid (1-amino-isoquinolin-6-ylmethyl)-amide] | 0.0323 µM | 4.74 µM |
| Nc1nccc2cc(CNC(=O)c3cn(Cc4ccc(N5CC[C@@H](CO)C5)nc4)nc3C(F)(F)F)ccc12 [Example 70, 1-[6-((R)-3-Hydroxymethyl-pyrrolidin-1-yl)-pyridin-3-ylmethyl]-3-trifluoromethyl-1H-pyrazole-4-carboxylic acid (1-amino-isoquinolin-6-ylmethyl)-amide] | 0.0669 µM | 4.91 µM |
| CCCOc1ccc(Cn2cc(C(=O)NCc3ccc4c(N)nccc4c3)c(C(F)(F)F)n2)cn1 [Example 71, 1-(6-Propoxy-pyridin-3-ylmethyl)-3-trifluoromethyl-1H-pyrazole-4-carboxylic acid (1-amino-isoquinolin-6-ylmethyl)-amide] | 0.0636 µM | > 10 µM |
| CCC(C)Oc1ccc(Cn2cc(C(=O)NCc3ccc4c(N)nccc4c3)c(C(F)(F)F)n2)cn1 (stereo not drawn) [Example 72, 1-(6-sec-Butoxy-pyridin-3-ylmethyl)-3-trifluoromethyl-1H-pyrazole-4-carboxylic acid (1-amino-isoquinolin-6-ylmethyl)-amide] | 0.118 µM | > 10 µM |
| Nc1nccc2cc(CNC(=O)c3cn(Cc4cnc(N5CCCC5)c(F)c4)nc3C(F)(F)F)ccc12 [Example 73, 1-(5-Fluoro-6-pyrrolidin-1-yl-pyridin-3-ylmethyl)-3-trifluoromethyl-1H-pyrazole-4-carboxylic acid (1-amino-isoquinolin-6-ylmethyl)-amide] | 0.0226 µM | 1.57 µM |

The remaining lines, values ahead:

| IC50 (Human plasma kallikrein) | IC50 (Human KLK1) | Compound |
| --- | --- | --- |
| 0.00538 µM | > 10 µM | O=C(NCc1cnc2[nH]ccc2c1)c1cn(Cc2ccc(Cn3ccccc3=O)cc2)nc1C(F)(F)F [Example 7, 1-[4-(2-Oxo-2H-pyridin-1-ylmethyl)-benzyl]-3-trifluoromethyl-1H-pyrazole-4-carboxylic acid (1H-pyrrolo[2,3-b]pyridin-5-ylmethyl)-amide] |
| 0.00372 µM | > 10 µM | Cc1nc2[nH]ccc2c(C)c1CNC(=O)c1cn(Cc2ccc(Cn3ccccc3=O)cc2)nc1C(F)(F)F [Example 8, 1-[4-(2-Oxo-2H-pyridin-1-ylmethyl)-benzyl]-3-trifluoromethyl-1H-pyrazole-4-carboxylic acid (4,6-dimethyl-1H-pyrrolo[2,3-b]pyridin-5-ylmethyl)-amide] |
| 0.0143 µM | > 10 µM | Cc1cnn(Cc2ccc(Cn3c(C)cc(C(=O)NCc4ccc5c(N)nccc5c4)c3C)cc2)c1 [Example 9, 2,5-Dimethyl-1-[4-(4-methyl-pyrazol-1-ylmethyl)-benzyl]-1H-pyrrole-3-carboxylic acid (1-amino-isoquinolin-6-ylmethyl)-amide] |
| 0.0024 µM | > 10 µM | Cc1cnn(Cc2ccc(Cn3cnc(C(=O)NCc4ccc5c(N)nccc5c4)c3)cc2)c1 [Example 10, 1-[4-(4-Methyl-pyrazol-1-ylmethyl)-benzyl]-1H-imidazole-4-carboxylic acid (1-amino-isoquinolin-6-ylmethyl)-amide] |
| 0.00117 µM | 6.64 µM | Cc1cnn(Cc2ccc(Cn3cc(C(=O)NCc4ccc5c(N)nccc5c4)c(CO)n3)cc2)c1 [Example 15, 3-Hydroxymethyl-1-[4-(4-methyl-pyrazol-1-ylmethyl)-benzyl]-1H-pyrazole-4-carboxylic acid (1-amino-isoquinolin-6-ylmethyl)-amide] |
| 0.00074 µM | 5.73 µM | Cc1cnn(Cc2ccc(Cn3cc(C(=O)NCc4ccc5c(N)nccc5c4)c(C#N)n3)cc2)c1 [Example 16, 3-Cyano-1-[4-(4-methyl-pyrazol-1-ylmethyl)-benzyl]-1H-pyrazole-4-carboxylic acid (1-amino-isoquinolin-6-ylmethyl)-amide] |
| 0.00089 µM | > 10 µM | Cc1cnn(Cc2ccc(Cn3cc(C(=O)NCc4ccc5c(N)nccc5c4)c(-c4c(C)noc4C)n3)cc2)c1 [Example 20, 3-(3,5-Dimethyl-isoxazol-4-yl)-1-[4-(4-methyl-pyrazol-1-ylmethyl)-benzyl]-1H-pyrazole-4-carboxylic acid (1-amino-isoquinolin-6-ylmethyl)-amide] |
| 0.00646 µM | > 10 µM | Cc1cnn(Cc2ccc(Cn3cc(C(=O)NCc4ccc5c(N)nccc5c4)c(N4CCOCC4)n3)cc2)c1 [Example 21, 1-[4-(4-Methyl-pyrazol-1-ylmethyl)-benzyl]-3-morpholin-4-yl-1H-pyrazole-4-carboxylic acid (1-amino-isoquinolin-6-ylmethyl)-amide] |
| 0.00731 µM | 2.21 µM | COc1cc(Cn2cc(C(=O)NCc3ccc4c(N)nccc4c3)c(C3CC3)n2)cnc1N1CCCC1 [Example 25, 3-Cyclopropyl-1-(5-methoxy-6-pyrrolidin-1-yl-pyridin-3-ylmethyl)-1H-pyrazole-4-carboxylic acid (1-amino-isoquinolin-6-ylmethyl)-amide] |
| 0.00485 µM | 9.05 µM | Cc1cnn(Cc2ccc(Cn3cc(C(=O)NCc4ccc5c(N)nccc5c4)c(-c4ccsc4)n3)cc2)c1 [Example 42, 1-[4-(4-Methyl-pyrazol-1-ylmethyl)-benzyl]-3-thiophen-3-yl-1H-pyrazole-4-carboxylic acid (1-amino-isoquinolin-6-ylmethyl)-amide] |
| 0.0168 µM | > 10 µM | Nc1nccc2cc(CNC(=O)c3cnn(Cc4ccc(Cn5cccn5)cc4)c3N)ccc12 [Example 53, 5-Amino-1-(4-pyrazol-1-ylmethyl-benzyl)-1H-pyrazole-4-carboxylic acid (1-amino-isoquinolin-6-ylmethyl)-amide] |
| 0.0133 µM | 3.11 µM | C[C@@H]1CCN(c2ccc(Cn3cc(C(=O)NCc4ccc5c(N)nccc5c4)c(C(F)(F)F)n3)cn2)C1 [Example 58, 1-[6-((R)-3-Methyl-pyrrolidin-1-yl)-pyridin-3-ylmethyl]-3-trifluoromethyl-1H-pyrazole-4-carboxylic acid (1-amino-isoquinolin-6-ylmethyl)-amide] |
| 0.0104 µM | 2.79 µM | Nc1nccc2cc(CNC(=O)c3cn(Cc4cnc(N5CCCC5)nc4)nc3C(F)(F)F)ccc12 [Example 64, 1-(2-Pyrrolidin-1-yl-pyrimidin-5-ylmethyl)-3-trifluoromethyl-1H-pyrazole-4-carboxylic acid (1-amino-isoquinolin-6-ylmethyl)-amide] |
| 0.0149 µM | 0.96 µM | Nc1nccc2cc(CNC(=O)c3cn(Cc4cnc(N5CCCC5)cn4)nc3C(F)(F)F)ccc12 [Example 65, 1-(5-Pyrrolidin-1-yl-pyrazin-2-ylmethyl)-3-trifluoromethyl-1H-pyrazole-4-carboxylic acid (1-amino-isoquinolin-6-ylmethyl)-amide] |
